Reference: patent US8293751B2, “1,2,3-trisubstituted aryl and heteroaryl derivatives as modulators of metabolism and the prophylaxis and treatment of disorders related thereto such as diabetes and hyperglycemia” (Arena Pharmaceuticals, Inc., priority 2003, dated 2012)
Entries after “also recorded” stand apart in the source; their conditions may differ.

Tests used:
isolated rat islets = test: Stimulation of insulin secretion in isolated rat islets; format: cell-based; details: 10 μM concentration, enhancement comparable to 25 nM GLP-1, FIG. 4D
Experimental: E. Stimulation of Insulin Secretion in Isolated Rat Islets
As with HIT-T15 cells, it is known that stimulation of cAMP in isolated rat islets causes an increase in insulin secretion when the glucose concentration in the culture media is changed from 60 mg/dl to 300 mg/dl. RUP3 is an endogenously expressed GPCR in the insulin-producing cells of rat islets. Thus, RUP3 ligands can also be tested for their ability to stimulate GSIS in rat islet cultures. This assay is performed as follows: • A. Select 75-150 islet equivalents (IEQ) for each assay condition using a dissecting microscope. Incubate overnight in low-glucose culture medium. (Optional.) • B. Divide the islets evenly into triplicate samples of 25-40 islet equivalents per sample. Transfer to 40 μm mesh sterile cell strainers in wells of a 6-well plate with 5 ml of low (60 mg/dl) glucose Krebs-Ringers Buffer (KRB) assay medium. • C. Incubate 30 minutes (1 hour if overnight step skipped) at 37° C. and 5% CO2. Save the supernatants if a positive control for the RIA is desired. • D. Move strainers with islets to new wells with 5 ml/well low glucose KRB. […] Freeze and store at <−20° C. until insulin concentrations can be determined. • I. Insulin determinations are done as above, or by Linco Labs as a custom service, using their rat insulin RIA (Cat. #RI-13K). […]

RUP3 = molecular target: T1, RUP3 (Homo sapiens, UniProt Q8TDV5); test: 96-Well Cyclic AMP Membrane Assay for RUP3 (Membrane Cyclase Assay); format: biochemical; details: RUP3 membranes, cAMP Flashplate
T1 construct: seen in the listing only (N); seen in the listing only (C); expressed in transfected cells
T1 sequence (Q8TDV5 with tags, fused parts or gaps): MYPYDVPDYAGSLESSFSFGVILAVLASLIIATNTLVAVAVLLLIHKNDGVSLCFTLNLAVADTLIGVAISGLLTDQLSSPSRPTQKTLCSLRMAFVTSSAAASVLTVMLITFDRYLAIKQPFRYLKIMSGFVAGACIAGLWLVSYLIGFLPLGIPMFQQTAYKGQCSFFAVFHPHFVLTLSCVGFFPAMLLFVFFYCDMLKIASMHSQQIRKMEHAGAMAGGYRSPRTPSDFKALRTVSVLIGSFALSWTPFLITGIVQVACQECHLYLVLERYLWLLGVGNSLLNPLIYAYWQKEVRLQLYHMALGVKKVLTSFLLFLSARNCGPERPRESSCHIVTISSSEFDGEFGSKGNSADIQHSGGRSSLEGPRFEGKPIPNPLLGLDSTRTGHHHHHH
Experimental: 96-Well Cyclic AMP Membrane Assay for RUP3
Binding Buffer—filter through […] Nalgene filter and keep in refrigerator. All buffers and membranes should be kept cold (in ice bucket) while performing assay. • 20 mM Hepes, pH7.4 • 1 mM MgCl2 • 100 mM NaCl • 2× Regeneration Buffer (make in binding buffer): • 20 mM Phosphocreatine (1.02 gm/200 ml binding buffer) • 20 units Creatine phosphokinase (4 mg/200 ml) • 20 uM GTP (make up 10.46 mg/ml in binding buffer and add 200 ul/200 ml) • 0.2 mM ATP (22.04 mg/200 ml) • […] IBMX (44.4 mg IBMX dissolved in 1 ml 100% DMSO first and then add the entire amount to 200 ml of buffer).
Regeneration buffer can be aliquotted into 40-45 ml portions (in 50 ml sterile tubes) and kept frozen for up to 2 months. Simply put the tube in a beaker with room temperature water to thaw out the regeneration buffer on the day of the assay. […]
IC50s or EC50s are done in triplicate. […] The membranes are kept in ice all the time, and a polytron (Brinkmann polytron, model #PT-3100) is used (setting 6-7, for 15-20 seconds) to obtain a homogeneous membrane suspension.) Protein concentration is determined by Bradford protein assay kit using instructions given in the kit, using the standard supplied with the kit as a reference. […]

HIT-T15 cells [1] = test: Stimulation of cAMP in HIT-T15 cells; format: cell-based, hamster; details: compared with adenyl cyclase activator forskolin, FIG. 4B
Experimental: C. Stimulation of cAMP in HIT-T15 Cells
HIT-T15 (ATCC CRL#1777) is an immortalized hamster insulin-producing cell line. These cells express RUP3 and therefore can be used to assess the ability of RUP3 ligands to stimulate or inhibit cAMP accumulation via its endogenously expressed receptor. In this assay, cells are grown to 80% confluence and then distributed into a 96-well Flashplate (50,000 cells/well) for detection of cAMP via a “cAMP Flashplate Assay” (NEN, Cat #SMP004). Briefly, cells are placed into anti-cAMP antibody-coated wells that contain either vehicle, the test ligand(s) at a concentration of interest, or 1 uM forskolin. The latter is a direct activator of adenylyl cyclase and serves as a positive control for stimulation of cAMP in HIT-T15 cells. All conditions are tested in triplicate. After ail hour incubation to allow for stimulation of cAMP, a Detection Mix containing ^125I-cAMP is added to each well and the plate is allowed to incubate for another 1 hour. The wells are then aspirated to remove unbound ^125I-cAMP. Bound ^125I-cAMP is detected using a Wallac Microbeta Counter. The amount of cAMP in each sample is determined by comparison to a standard curve, obtained by placing known concentrations of cAMP in some wells on the plate. […]

HIT-T15 cells [2] = test: Stimulation of insulin secretion in HIT-T15 cells; format: cell-based, hamster; details: HIT-T15 cells exposed to 15 mM glucose; compared with forskolin; FIG. 4C
Experimental: D. Stimulation of Insulin Secretion in HIT-T15 Cells
It is known that stimulation of cAMP in HIT-T15 cells causes an increase in insulin secretion when the glucose concentration in the culture media is changed from 3 mM to 15 mM. Thus, RUP3 ligands can also be tested for their ability to stimulate glucose-dependent insulin secretion (GSIS) in HIT-T15 cells. In this assay, 30,000 cells/well in a 12-well plate are incubated in culture media containing 3 mM glucose and no serum for 2 hours. The media is then changed; wells receive media containing either 3 mM or 15 mM glucose, and in both cases the media contains either vehicle (DMSO) or RUP3 ligand at a concentration of interest. Some wells receive media containing 1 uM forskolin as a positive control. All conditions are tested in triplicate. Cells are incubated for 30 minutes, and the amount of insulin secreted into the media is determined by ELISA, using a kit from either Peninsula Laboratories (Cat #ELIS-7536) or Crystal Chem Inc. (Cat #90060).
In the first of these, RUP3 agonists are used to stimulate HIT-T15 cells, which express RUP3 at significant levels, as indicated in the Northern blot shown in FIG. 4A.

[3] = tested on: db mice (C57BL/KsOlahsd-Leprdb, diabetic); test: Acute response of db mice to RUP3 agonist (blood glucose); format: in vivo; details: male db mice; 1 μg/kg, intraperitoneally; FIG. 5B
Experimental: B. […] Male db mice (C57BL/KsOlahsd-Leprdb, diabetic, Harlan) at age of 10 weeks were randomly grouped (n=6) to receive vehicle (oral gavage), Compound B70 (60 mg/kg, oral gavage), or Ex-4 (1 μg/kg, intraperitoneally). After compound administration, food was removed and blood glucose levels were determined at indicated times as shown in FIG. 5B. Reduction in blood glucose at each time point was expressed as percentage of original glucose levels, averaged from six animals for each group.

Molecule	glucose-dependent insulin release (isolated rat islets)	IC50 (RUP3) [nM]	also measured
CCOC(=O)C1CCN(c2ncnc(Oc3ccc(C4NC(=O)NC4=O)cc3)c2[N+](=O)[O-])CC1 (stereo not shown) [Compound A48, 1-{6-[4-(2,5-Dioxo-imidazolidin-4-yl)-phenoxy]-5-nitro-pyrimidin-4-yl}-piperidine-4-carboxylic acid ethyl ester]	enhanced glucose-dependent insulin release compared to control		
CCOC(=O)C1CCN(c2ncnc(Oc3ccc(CCC(C)=O)cc3)c2[N+](=O)[O-])CC1 [Compound A51, 1-{5-Nitro-6-[4-(3-oxo-butyl)-phenoxy]-pyrimidin-4-yl}-piperidine-4-carboxylic acid ethyl ester]	enhanced glucose-dependent insulin release compared to control		
CCCC1CCN(c2ncnc(Oc3ccc(C(=O)c4ccc(F)cc4)cc3)c2[N+](=O)[O-])CC1 [Compound A124, (4-Fluoro-phenyl)-{4-[5-nitro-6-(4-propyl-piperidin-1-yl)-pyrimidin-4-yloxy]-phenyl}-methanone]		241	
CS(=O)(=O)c1ccc(Nc2ncnc(N3CCC(Sc4ccccc4)CC3)c2[N+](=O)[O-])cc1 [Compound B84, (4-Methanesulfonyl-phenyl)-[5-nitro-6-(4-phenylsulfanyl-piperidin-1-yl)-pyrimidin-4-yl]-amine]		50	cAMP production in HIT cells (HIT-T15 cells [1]): stimulates cAMP production in HIT cells, at a level comparable to that seen with the adenyl cyclase activator forskolin; insulin secretion in HIT cells (HIT-T15 cells [2]): stimulates insulin secretion in HIT cells exposed to 15 mM glucose, once again at a level comparable to that seen with the adenyl cyclas activator forskolin; also recorded: stimulates insulin secretion in HIT cells exposed to 15 mM glucose, at a level comparable to that seen with the adenylcyclase activator forskolin
extendin-4 [Ex-4, reference compound]			blood glucose levels compared to vehicle control [3]: significantly reduces glucose levels compared to vehicle control
